Laboratory results published in article PMC4336144, “Screening the Medicines for Malaria Venture "Malaria Box" against the Plasmodium falciparum Aminopeptidases, M1, M17 and M18” (PLoS ONE, 2015).
pKi: −log10 of the molar value.

Columns and labels:
[1] = molecular target: T1, PfA-M1 (Plasmodium falciparum, UniProt O96935); experiment: Secondary screening against individual enzyme; type: biochemical; conditions: 100 μM compound; for PfA-M1 activity retained in the presence of compound: n = 3, of total enzyme activity
T1 construct: made in house; host or cells: Escherichia coli
T1 sequence (O96935 195-1085 limits assumed): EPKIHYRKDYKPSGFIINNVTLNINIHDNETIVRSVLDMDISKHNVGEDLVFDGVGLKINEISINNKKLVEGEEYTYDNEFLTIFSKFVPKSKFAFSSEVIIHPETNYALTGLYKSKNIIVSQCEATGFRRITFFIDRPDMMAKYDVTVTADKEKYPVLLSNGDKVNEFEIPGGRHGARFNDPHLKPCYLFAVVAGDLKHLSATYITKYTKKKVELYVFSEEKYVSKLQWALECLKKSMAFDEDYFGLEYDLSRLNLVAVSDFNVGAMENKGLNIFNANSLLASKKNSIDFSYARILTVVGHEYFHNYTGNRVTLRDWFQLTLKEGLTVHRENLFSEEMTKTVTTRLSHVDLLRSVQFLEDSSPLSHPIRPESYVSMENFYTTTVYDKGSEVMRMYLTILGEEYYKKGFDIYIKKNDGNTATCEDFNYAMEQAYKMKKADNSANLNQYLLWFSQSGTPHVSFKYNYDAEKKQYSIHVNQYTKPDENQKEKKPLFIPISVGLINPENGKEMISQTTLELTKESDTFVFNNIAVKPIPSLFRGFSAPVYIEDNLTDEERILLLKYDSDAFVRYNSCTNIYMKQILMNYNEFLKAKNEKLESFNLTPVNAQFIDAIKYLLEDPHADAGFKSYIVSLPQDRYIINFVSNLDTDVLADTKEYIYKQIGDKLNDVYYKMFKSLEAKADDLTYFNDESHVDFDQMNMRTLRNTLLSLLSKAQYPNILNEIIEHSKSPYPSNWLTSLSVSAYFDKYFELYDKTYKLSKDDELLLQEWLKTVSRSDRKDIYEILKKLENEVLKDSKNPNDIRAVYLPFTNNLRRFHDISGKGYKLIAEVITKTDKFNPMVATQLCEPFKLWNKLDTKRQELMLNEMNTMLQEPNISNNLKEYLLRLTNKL
Experimental: (§1) Aminopeptidase activity of each individual enzyme in the presence of a single MMV compound (100 μM) was determined using Leu-Mec for both PfA-M1 (15 nM) and PfA-M17 (80 nM) or Glu-pNA for PfM18AAP (125 nM). Reactions were carried out in 96-well microtitre plates (200 μl total volume) in 50 mM Tris-HCl pH 8.0, 2 mM CoCl2 at 37°C. Following a 10 min incubation (enzyme and compound) at 37°C, reactions were initiated by addition of enzyme specific substrate. Progress curves were monitored using a FLUOstar Omega multimode reader (BMG LabTech) for 1.5 h at 37°C. As activity references, individual enzyme 'no compound' controls and 'positive inhibitor' controls were included in each 96 well plate assay. We applied a cut-off of < 10% activity in the presence of 100 μM compound for selection to the next phase. Compounds that were selected to proceed were then used in further assays to obtain n = 3.

[2] = molecular target: T2, PfA-M17 (Plasmodium falciparum, UniProt Q8IL11); experiment: Secondary screening against individual enzyme; type: biochemical; conditions: 100 μM compound
T2 construct: made in house; host or cells: Escherichia coli
T2 sequence (Q8IL11 84-605 limits assumed): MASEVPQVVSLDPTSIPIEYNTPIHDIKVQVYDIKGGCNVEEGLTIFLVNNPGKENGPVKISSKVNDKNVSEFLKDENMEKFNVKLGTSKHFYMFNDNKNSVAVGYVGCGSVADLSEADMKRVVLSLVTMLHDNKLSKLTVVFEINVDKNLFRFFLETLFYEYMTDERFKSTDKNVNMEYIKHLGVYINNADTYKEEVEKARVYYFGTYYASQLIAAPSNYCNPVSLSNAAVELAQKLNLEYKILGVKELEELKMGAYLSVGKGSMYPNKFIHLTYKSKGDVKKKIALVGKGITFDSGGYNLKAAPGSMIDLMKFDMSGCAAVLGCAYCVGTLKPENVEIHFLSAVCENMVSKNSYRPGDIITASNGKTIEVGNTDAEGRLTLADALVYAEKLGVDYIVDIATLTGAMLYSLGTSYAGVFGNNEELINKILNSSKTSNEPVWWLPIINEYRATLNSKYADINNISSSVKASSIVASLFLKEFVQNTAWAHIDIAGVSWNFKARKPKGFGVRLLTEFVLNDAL
Experimental: as §1

[3] = molecular target: T1, PfA-M1; experiment: Determination of Ki values (Dixon plots, H-Leu-NHMec); type: biochemical; conditions: for pKi / Ki PfA-M1: Dixon plot; for pKi: read-out: Ki PfA-M1
Experimental: (§2) MMV020750 was purchased from InterBioScreen (catalog number STOCK2S-51608) and MMV666023 was purchased from ChemBridge (catalog number 5566248). The MMV020750 derivatives 1, 2 and 3 were purchased from Ambinter (catalog numbers AMB425981, AMB2311364 and AMB8506251 respectively). 4-(4,5-Diphenyl-1H-imidazol-2-yl)benzoic acid (4) was purchased from TCI Chemicals, while 4-(4,5-diphenyl-1H-imidazol-2-yl)-N-hydroxybenzamide (5) was prepared from 4 as described (S1 Methods). Aminopeptidase activity of both PfA-M1 and PfA-M17 enzymes was determined by measuring the release of the fluorogenic leaving group, NHMec, from the fluorogenic peptide L-Leucine-7-amido-4-methylcoumarin hydrochloride (H-Leu-NHMec) (Sigma L2145). The assay protocol devised by Stack CM, et al, (J. Biol Chem, 2007) was modified and used, with the reactions were carried out at 37°C and monitored using a spectrofluorometer (BMG FLUOstar) with excitation at 355 nm and emission at 460 nm. Each enzyme was pre-incubated in 50 mM Tris pH 8.0, 2 mM CoCl2; 5% DMSO with each inhibitor for 10 min prior to the addition of substrate. Inhibitor concentration was assayed between 0 and 500 μM final for each compound, and repeated over a narrowed range if necessary. The fluorescence signal was monitored until a final steady state velocity, V, was obtained. The K i values were then evaluated using Dixon plots of 1/V versus inhibitor concentration while the substrate concentration was maintained lower than that of the Km of the enzyme.

[4] = molecular target: T2, PfA-M17; experiment: as above; type: biochemical; conditions: for loss in inhibitory activity against PfA-M17: compared to parent MMV020750
Experimental: as §2
This was a particular problem with the PfA-M17 enzyme assays where we noted that at higher concentrations of 4, a decrease in fluorescence was observed. We hypothesise that this is a result of PfA-M17 binding to the compound and quenching the intrinsic fluorescence. […] We therefore chose to analyse a reduced concentration range for 4.

[5] = system: PfA-M1 and/or PfA-M17; experiment: Multiplex primary screen, fluorogenic substrate Leu-Mec; type: biochemical, Plasmodium falciparum; conditions: 100 μM compound, multiplex assay
Experimental: A multiplex enzyme assay was developed to complete the primary screen of 400 compounds that were provided to us by MMV and SCYNEXIS. Combined PfMAP (15 nM PfA-M1; 80 nM PfA-M17 and 125 nM PfM18AAP) aminopeptidase activity in the presence of a single MMV compound (100 μM solubilized in 100% dimethyl sulfoxide, DMSO, final DMSO concentration in assay = 10%) was determined by simultaneous measurement of the release of the fluorogenic leaving group, -NHMec, from L-Leucine-7-amido-4-methylcoumarin-HCl (Leu-Mec) (Sigma) as well as the hydrolysis of p-nitroanilide from the chromogenic substrate, L-Glutamic acid p-nitroanilide (Glu-pNA) (Sigma). The fluorogenic substrate records the combined activity of PfA-M1 and PfA-M17 while the p-nitroanilide substrate is specific for PfM18AAP. Reactions were carried out in 96-well microtitre plates (200 μL total volume) in 50 mM Tris-HCl pH 8.0, 2 mM CoCl2 at 37°C. Following a 10 min incubation (multi-enzyme and single compound) at 37°C, reactions were initiated by addition of both fluorogenic and chromagenic substrates. Progress curves were monitored using a FLUOstar Omega multimode reader (BMG LabTech) for 1.5 h at 37°C. As activity references, individual enzyme and multiple enzyme 'no compound' controls and 'positive inhibitor' controls (with 10% DMSO) were included in each 96 well plate assay.

| pKi [3] | pKi ([4]; Dixon plot) | SMILES | Activity (PfA-M1 and/or PfA-M17) [5] | also measured |
| --- | --- | --- | --- | --- |
|  |  | CC(C)C[C@H](NC(=O)[C@@H](O)[C@H](N)Cc1ccccc1)C(=O)O [Bestatin, reference compound] |  | PfA-M1 activity, single dose secondary screen ([1]; n = 1): no neutral aminopeptidase activity is detectable; PfA-M1 activity retained in the presence of compound [1]: no neutral aminopeptidase activity is detectable; PfA-M17 activity, single dose secondary screen ([2]; n = 1): no neutral aminopeptidase activity is detectable; PfA-M17 activity retained in the presence of compound ([2]; n = 3): no neutral aminopeptidase activity is detectable |
| < 3.30 | < 3.30 | CN(CCO)c1ccc(-c2nc(-c3ccccc3)c(-c3ccccc3)[nH]2)cc1 [Compound 1] |  |  |
| < 3.30 | < 3.30 | COc1cc(-c2nc(-c3ccccc3)c(-c3ccccc3)[nH]2)ccc1OCC(N)=O [Compound 2] |  |  |
| 3.92 | 3.56 | COC(=O)c1ccc(-c2nc(-c3ccccc3)c(-c3ccccc3)[nH]2)cc1 [Compound 3] |  | Ki PfA-M1 [3]: micromolar range; loss in inhibitory activity against PfA-M17 [4]: > 10 fold |
| 5.28 | 4.40 to 4.70 | O=C(O)c1ccc(-c2nc(-c3ccccc3)c(-c3ccccc3)[nH]2)cc1 [Compound 4, 4-(4,5-Diphenyl-1H-imidazol-2-yl)benzoic acid] |  | increase in potency against PfA-M1 ([3]; compared to MMV020750): > 10 fold; Ki PfA-M17 ([4]; Dixon plot): micromolar range |
| 4.47 | 3.73 | O=C(NO)c1ccc(-c2nc(-c3ccccc3)c(-c3ccccc3)[nH]2)cc1 [Compound 5, 4-(4,5-diphenyl-1H-imidazol-2-yl)-N-hydroxybenzamide] |  | Ki PfA-M1 [3]: micromolar range; loss in inhibitory activity against PfA-M17 [4]: > 10 fold |
|  |  | Cc1ccnc(NC(c2cccc(OCc3ccccc3)c2)c2ccc3cccnc3c2O)c1 (centres unmarked) [MMV000720] | R |  |
|  |  | Oc1ccc(-c2nc(-c3ccc4oc5ccc(-c6[nH]c(-c7ccc(O)cc7)nc6-c6ccccc6)cc5c4c3)c(-c3ccccc3)[nH]2)cc1 [MMV000753] | R |  |
|  |  | OCCNc1nc(Nc2ccc(Cl)c(Cl)c2)nc2ccccc12 [MMV001041] | R |  |
|  |  | CN(C)c1ccc(C=Cc2nc(=O)c3ccccc3o2)cc1 [MMV006309] | R |  |
|  |  | Cc1cccc(N2C(=O)C3C(C2=O)C2(c4ccccc4)C(=O)C3(c3ccccc3)C(c3ccc4c(c3)OCO4)=C2c2ccc3c(c2)OCO3)c1 (centres unmarked) [MMV007228] | R | reduction of PfA-M1 activity ([1]; n = 3): 89% |
|  |  | COc1cc(-c2nc(-c3ccc(Sc4ccccc4)cc3)c(-c3ccccc3)[nH]2)cc(OC)c1O [MMV007273] | R | PfA-M1 activity retained in the presence of compound [1]: ~75% |
|  |  | COc1ccc2c(c1)OC(O)(C(F)(F)C(F)(F)F)CC2=O (centres unmarked) [MMV007839] | R |  |
